Each compound was assayed on test plant species (assay: Post-emergent herbicidal activity test (greenhouse, foliar spray, visual growth reduction)). Conditions: post-emergence, 336 h, ALOMY: blackgrass (Alopecurus myosuroides), 140 g ai/ha, 14 days after application, read-out: Visual Growth Reduction (%) 14 Days After Application, ALOMY.
Assay type: in vivo
Summary of the method: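 Visual percent injury (0-100) rated 14 d after treatment, relative to nontreated and solvent-blank plants. Test plants at first or second true leaf stage received an overhead track-sprayer application at 187 L/ha. Compounds were formulated in aqueous acetone/DMSO carrier containing crop oil concentrate and X-77 surfactant.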

SMILES	pest or weed control at 140 g/ha [%]
CCN(CC)c1c(Cl)ccc(-c2ccc(Cl)c(C(=O)OC)n2)c1F [F171]	0 to 29
COC(=O)c1nc(-c2ccc(C(F)(F)F)c(C#N)c2Cl)ccc1Cl [F143, methyl 3-chloro-6-(2-chloro-3-cyano-4-(trifluoromethyl)phenyl)picolinate]	0 to 29
COC(=O)c1nc(-c2ccc(C(F)(F)F)c(SC)c2Cl)ccc1Cl [F121, methyl 3-chloro-6-(2-chloro-3-(methylthio)-4-(trifluoromethyl)phenyl)picolinate]	0 to 29

Same assay, conditions: post-emergence, 336 h, AMARE: redroot pigweed (Amaranthus retroflexus), 140 g ai/ha, 14 days after application, read-out: Visual Growth Reduction (%) 14 Days After Application, AMARE

SMILES	pest or weed control at 140 g/ha [%]
CCN(CC)c1c(Cl)ccc(-c2ccc(Cl)c(C(=O)OC)n2)c1F [F171]	0 to 29
COC(=O)c1nc(-c2ccc(C(F)(F)F)c(C#N)c2Cl)ccc1Cl [F143, methyl 3-chloro-6-(2-chloro-3-cyano-4-(trifluoromethyl)phenyl)picolinate]	45 to 59
COC(=O)c1nc(-c2ccc(C(F)(F)F)c(SC)c2Cl)ccc1Cl [F121, methyl 3-chloro-6-(2-chloro-3-(methylthio)-4-(trifluoromethyl)phenyl)picolinate]	30 to 44

Same assay, conditions: post-emergence, 336 h, AVEFA: wild oat (Avena fatua), 140 g ai/ha, 14 days after application, read-out: Visual Growth Reduction (%) 14 Days After Application, AVEFA

SMILES	pest or weed control at 140 g/ha [%]
CCN(CC)c1c(Cl)ccc(-c2ccc(Cl)c(C(=O)OC)n2)c1F [F171]	0 to 29
COC(=O)c1nc(-c2ccc(C(F)(F)F)c(C#N)c2Cl)ccc1Cl [F143, methyl 3-chloro-6-(2-chloro-3-cyano-4-(trifluoromethyl)phenyl)picolinate]	0 to 29
COC(=O)c1nc(-c2ccc(C(F)(F)F)c(SC)c2Cl)ccc1Cl [F121, methyl 3-chloro-6-(2-chloro-3-(methylthio)-4-(trifluoromethyl)phenyl)picolinate]	0 to 29

Same assay, conditions: post-emergence, 336 h, CHEAL: lambsquarters (Chenopodium album), 140 g ai/ha, 14 days after application, read-out: Visual Growth Reduction (%) 14 Days After Application, CHEAL

SMILES	pest or weed control at 140 g/ha [%]
CCN(CC)c1c(Cl)ccc(-c2ccc(Cl)c(C(=O)OC)n2)c1F [F171]	60 to 74
COC(=O)c1nc(-c2ccc(C(F)(F)F)c(C#N)c2Cl)ccc1Cl [F143, methyl 3-chloro-6-(2-chloro-3-cyano-4-(trifluoromethyl)phenyl)picolinate]	30 to 44
COC(=O)c1nc(-c2ccc(C(F)(F)F)c(SC)c2Cl)ccc1Cl [F121, methyl 3-chloro-6-(2-chloro-3-(methylthio)-4-(trifluoromethyl)phenyl)picolinate]	0 to 29

Same assay, conditions: post-emergence, 336 h, CIRAR: canada thistle (Cirsium arvense), 140 g ai/ha, 14 days after application, read-out: Visual Growth Reduction (%) 14 Days After Application, CIRAR

SMILES	pest or weed control at 140 g/ha [%]
CCN(CC)c1c(Cl)ccc(-c2ccc(Cl)c(C(=O)OC)n2)c1F [F171]	0 to 29
COC(=O)c1nc(-c2ccc(C(F)(F)F)c(C#N)c2Cl)ccc1Cl [F143, methyl 3-chloro-6-(2-chloro-3-cyano-4-(trifluoromethyl)phenyl)picolinate]	0 to 29
COC(=O)c1nc(-c2ccc(C(F)(F)F)c(SC)c2Cl)ccc1Cl [F121, methyl 3-chloro-6-(2-chloro-3-(methylthio)-4-(trifluoromethyl)phenyl)picolinate]	0 to 29

Same assay, conditions: post-emergence, 336 h, CYPES: yellow nutsedge (Cyperus esculentus), 140 g ai/ha, 14 days after application, read-out: Visual Growth Reduction (%) 14 Days After Application, CYPES

SMILES	pest or weed control at 140 g/ha [%]
CCN(CC)c1c(Cl)ccc(-c2ccc(Cl)c(C(=O)OC)n2)c1F [F171]	0 to 29
COC(=O)c1nc(-c2ccc(C(F)(F)F)c(C#N)c2Cl)ccc1Cl [F143, methyl 3-chloro-6-(2-chloro-3-cyano-4-(trifluoromethyl)phenyl)picolinate]	0 to 29
COC(=O)c1nc(-c2ccc(C(F)(F)F)c(SC)c2Cl)ccc1Cl [F121, methyl 3-chloro-6-(2-chloro-3-(methylthio)-4-(trifluoromethyl)phenyl)picolinate]	0 to 29

Same assay, conditions: post-emergence, 336 h, DIGSA: crabgrass (Digitaria sanguinalis), 140 g ai/ha, 14 days after application, read-out: Visual Growth Reduction (%) 14 Days After Application, DIGSA

SMILES	pest or weed control at 140 g/ha [%]
CCN(CC)c1c(Cl)ccc(-c2ccc(Cl)c(C(=O)OC)n2)c1F [F171]	0 to 29
COC(=O)c1nc(-c2ccc(C(F)(F)F)c(C#N)c2Cl)ccc1Cl [F143, methyl 3-chloro-6-(2-chloro-3-cyano-4-(trifluoromethyl)phenyl)picolinate]	75 to 84
COC(=O)c1nc(-c2ccc(C(F)(F)F)c(SC)c2Cl)ccc1Cl [F121, methyl 3-chloro-6-(2-chloro-3-(methylthio)-4-(trifluoromethyl)phenyl)picolinate]	0 to 29

Same assay, conditions: post-emergence, 336 h, ECHCG: barnyardgrass (Echinochloa crus-galli), 140 g ai/ha, 14 days after application, read-out: Visual Growth Reduction (%) 14 Days After Application, ECHCG

SMILES	pest or weed control at 140 g/ha [%]
CCN(CC)c1c(Cl)ccc(-c2ccc(Cl)c(C(=O)OC)n2)c1F [F171]	0 to 29
COC(=O)c1nc(-c2ccc(C(F)(F)F)c(C#N)c2Cl)ccc1Cl [F143, methyl 3-chloro-6-(2-chloro-3-cyano-4-(trifluoromethyl)phenyl)picolinate]	0 to 29
COC(=O)c1nc(-c2ccc(C(F)(F)F)c(SC)c2Cl)ccc1Cl [F121, methyl 3-chloro-6-(2-chloro-3-(methylthio)-4-(trifluoromethyl)phenyl)picolinate]	0 to 29

Same assay, conditions: post-emergence, 336 h, IPOHE: ivy-leaf morning glory (Ipomoea hederacea), 140 g ai/ha, 14 days after application, read-out: Visual Growth Reduction (%) 14 Days After Application, IPOHE

SMILES	pest or weed control at 140 g/ha [%]
CCN(CC)c1c(Cl)ccc(-c2ccc(Cl)c(C(=O)OC)n2)c1F [F171]	0 to 29
COC(=O)c1nc(-c2ccc(C(F)(F)F)c(C#N)c2Cl)ccc1Cl [F143, methyl 3-chloro-6-(2-chloro-3-cyano-4-(trifluoromethyl)phenyl)picolinate]	75 to 84
COC(=O)c1nc(-c2ccc(C(F)(F)F)c(SC)c2Cl)ccc1Cl [F121, methyl 3-chloro-6-(2-chloro-3-(methylthio)-4-(trifluoromethyl)phenyl)picolinate]	0 to 29

Same assay, conditions: post-emergence, 336 h, KCHSC: kochia (Bassia scoparia), 140 g ai/ha, 14 days after application, read-out: Visual Growth Reduction (%) 14 Days After Application, KCHSC

SMILES	pest or weed control at 140 g/ha [%]
CCN(CC)c1c(Cl)ccc(-c2ccc(Cl)c(C(=O)OC)n2)c1F [F171]	30 to 44
COC(=O)c1nc(-c2ccc(C(F)(F)F)c(C#N)c2Cl)ccc1Cl [F143, methyl 3-chloro-6-(2-chloro-3-cyano-4-(trifluoromethyl)phenyl)picolinate]	0 to 29
COC(=O)c1nc(-c2ccc(C(F)(F)F)c(SC)c2Cl)ccc1Cl [F121, methyl 3-chloro-6-(2-chloro-3-(methylthio)-4-(trifluoromethyl)phenyl)picolinate]	0 to 29

Same assay, conditions: post-emergence, 336 h, ORYSA: rice (Oryza sativa), 140 g ai/ha, 14 days after application, read-out: Visual Growth Reduction (%) 14 Days After Application, ORYSA

SMILES	pest or weed control at 140 g/ha [%]
CCN(CC)c1c(Cl)ccc(-c2ccc(Cl)c(C(=O)OC)n2)c1F [F171]	0 to 29
COC(=O)c1nc(-c2ccc(C(F)(F)F)c(C#N)c2Cl)ccc1Cl [F143, methyl 3-chloro-6-(2-chloro-3-cyano-4-(trifluoromethyl)phenyl)picolinate]	0 to 29
COC(=O)c1nc(-c2ccc(C(F)(F)F)c(SC)c2Cl)ccc1Cl [F121, methyl 3-chloro-6-(2-chloro-3-(methylthio)-4-(trifluoromethyl)phenyl)picolinate]	0 to 29

Same assay, conditions: post-emergence, 336 h, SETFA: giant foxtail (Setaria faberi), 140 g ai/ha, 14 days after application, read-out: Visual Growth Reduction (%) 14 Days After Application, SETFA

SMILES	pest or weed control at 140 g/ha [%]
CCN(CC)c1c(Cl)ccc(-c2ccc(Cl)c(C(=O)OC)n2)c1F [F171]	0 to 29
COC(=O)c1nc(-c2ccc(C(F)(F)F)c(C#N)c2Cl)ccc1Cl [F143, methyl 3-chloro-6-(2-chloro-3-cyano-4-(trifluoromethyl)phenyl)picolinate]	0 to 29
COC(=O)c1nc(-c2ccc(C(F)(F)F)c(SC)c2Cl)ccc1Cl [F121, methyl 3-chloro-6-(2-chloro-3-(methylthio)-4-(trifluoromethyl)phenyl)picolinate]	0 to 29

Same assay, conditions: post-emergence, 336 h, SORVU: grain sorghum (Sorghum vulgare), 140 g ai/ha, 14 days after application, read-out: Visual Growth Reduction (%) 14 Days After Application, SORVU

SMILES	pest or weed control at 140 g/ha [%]
CCN(CC)c1c(Cl)ccc(-c2ccc(Cl)c(C(=O)OC)n2)c1F [F171]	0 to 29
COC(=O)c1nc(-c2ccc(C(F)(F)F)c(C#N)c2Cl)ccc1Cl [F143, methyl 3-chloro-6-(2-chloro-3-cyano-4-(trifluoromethyl)phenyl)picolinate]	60 to 74
COC(=O)c1nc(-c2ccc(C(F)(F)F)c(SC)c2Cl)ccc1Cl [F121, methyl 3-chloro-6-(2-chloro-3-(methylthio)-4-(trifluoromethyl)phenyl)picolinate]	0 to 29

Same assay, conditions: post-emergence, 336 h, STEME: common chickweed (Stellaria media), 140 g ai/ha, 14 days after application, read-out: Visual Growth Reduction (%) 14 Days After Application, STEME

SMILES	pest or weed control at 140 g/ha [%]
CCN(CC)c1c(Cl)ccc(-c2ccc(Cl)c(C(=O)OC)n2)c1F [F171]	0 to 29
COC(=O)c1nc(-c2ccc(C(F)(F)F)c(C#N)c2Cl)ccc1Cl [F143, methyl 3-chloro-6-(2-chloro-3-cyano-4-(trifluoromethyl)phenyl)picolinate]	0 to 29
COC(=O)c1nc(-c2ccc(C(F)(F)F)c(SC)c2Cl)ccc1Cl [F121, methyl 3-chloro-6-(2-chloro-3-(methylthio)-4-(trifluoromethyl)phenyl)picolinate]	0 to 29

Same assay, conditions: post-emergence, 336 h, TRZAS: wheat, spring (Triticum aestivum), 140 g ai/ha, 14 days after application, read-out: Visual Growth Reduction (%) 14 Days After Application, TRZAS

SMILES	pest or weed control at 140 g/ha [%]
CCN(CC)c1c(Cl)ccc(-c2ccc(Cl)c(C(=O)OC)n2)c1F [F171]	0 to 29
COC(=O)c1nc(-c2ccc(C(F)(F)F)c(C#N)c2Cl)ccc1Cl [F143, methyl 3-chloro-6-(2-chloro-3-cyano-4-(trifluoromethyl)phenyl)picolinate]	0 to 29
COC(=O)c1nc(-c2ccc(C(F)(F)F)c(SC)c2Cl)ccc1Cl [F121, methyl 3-chloro-6-(2-chloro-3-(methylthio)-4-(trifluoromethyl)phenyl)picolinate]	0 to 29

— patent US20230017045A1, “PYRIDINE AND PYRIMIDINE CARBOXYLATE HERBICIDES AND METHODS OF USE THEREOF” (Dow AgroSciences LLC, priority 2017, published 2023)
